Data from US5849587A, “Method of inhibiting viral replication in eukaryotic cells and of inducing apoptosis of virally-infected cells” (Cornell Research Foundation, Inc., priority 1995, dated 1998).
Entries after “also recorded” stand apart in the source; their conditions may differ.

Experiments:
[1] = tested on: uninfected parent cell line CEM; test: Flow cytometry of genomic DNA 3'-ends (apoptosis), uninfected parent cells; type: cell-based, human; conditions: for genomic DNA 3'-ends, CEM: 200 μM, 18 hours, FIG. 13
Method: FIGS. 13A-F show the flowcytometrically determined distribution of the number of fluorescently labeled 3'-ends in the genomic DNA of HIV-1 producing ACH-2 cells ("ACH-2") and their uninfected parent cell line CEM ("CEM"), both receiving no treatment ("NT") or treatment for 18 hours with either 200 μM mimosine ("MIM") or 200 μM HK-1 ("HK1"). […] This is the hallmark of irreversible auto-destruction of a cell's genetic library.
FIGS. 14A-H show the flowcytometrically determined distribution of the number of fluorescently labeled 3'-ends in the genomic DNA of HIV-1 producing ACH-2 cells ("ACH-2") and of their uninfected parent cell line CEM ("CEM"), both receiving no treatment ("NT") or treatment for 18 hours with 200 μM mimosine ("MIM"), followed by inhibitor withdrawal and reincubation in fresh medium for 2 hours.
ACH-2 cells were incubated with hypusine inhibitors (mimosine, HK-1) and induced with PMA as outlined in Example II A, except that the duration of exposure to inhibitor was extended to 18-21 hours and that cells were labeled as detailed in Example I B. Half of the cells were then harvested and processed for detection of apoptosis, while the other half was washed free of inhibitors and re-incubated in fresh medium for 2-4 hours, followed by harvesting and processing for detection of […] apoptosis. Using the same protocol, cultures of the parent CEM cell line were incubated in parallel. For assessment of apoptosis, cell viability was measured by exclusion of the dye trypan blue, by retention of the ^3 H-spermidine-derived intracellular radioactivity incorporated into the obligatory intracellular protein eIF-5A, and by direct fluorescence detection of the intemucleosomal degradation of genomic DNA. Such irreversible genome degradation signals the activation of pre-programmed suicide mechanisms within any cell, which is the hallmark of apoptosis, and inescapably results in cell death [Compton, Cancer Metast. 11, 105-119 (1992), which is hereby incorporated by reference]. For the latter method, a commercially available kit was used (Oncor, Gaithersburg, Md.). […]

[2] = tested on: HIV-1 RNA; test: Splicing analysis (Northern blot) of HIV-1 RNA in PMA-induced ACH-2 cells; type: cell-based; conditions: 200 μM, FIG. 7
Text: At about 9-kb is the position of unspliced viral MRNA species representing the infectious viral genome and encoding key structural proteins for core and capsid. At about 4-kb is the position of incompletely spliced viral MRNA species encoding structural and regulatory proteins. At about 2-kb is the position of completely spliced viral MRNA species encoding regulatory proteins, such as Rev. […] Lane B is for the high level expression of HIV-1 RNA after induction with PMA; note the presence of the 9-kb species.
ACH-2 cells were incubated with hypusine inhibitors (mimosine, HK-1) and induced with PMA as outlined in Example II A. From control cells, from cells induced with PMA, and from PMA-induced cells treated with 200 μM mimosine/HK-1, in each case aliqouts of 1.2×10^7 cells, the total cellular RNA was isolated by the guanidinium isothiocyanate-cesium chloride method [Chirgwin et al., Biochemistrv 18, 5294-5299 (1979), which is hereby incorporated by reference]. Equal quantities of RNA from each cell sample were electrophoresed on a 1% agarose-formaldehyde gel, transferred to nitrocellulose, and hybridized with randomly primed, ^32 P-dCTP-labeled genomic HIV-1 probe pBH10 [Ratner et al., Nature 313, 277-284 (1985), which is hereby incorporated by reference]. Following hybridization, the blots were washed extensively, dried, and autoradiographed. […]

[3] = tested on: viral p24 antigen, ACH-2 cells; test: p24 antigen levels (ELISA) in PMA-induced ACH-2 cells; type: cell-based, HIV-1; conditions: 200 μM, PMA-induced ACH-2, FIG. 10
Method: 142, 431-438 (1989), which is hereby incorporated by reference]. However, vigorous HIV-1 production by ACH-2 cells is induced by addition of the phorbol ester PMA [Pomerantz et al., Cell 61, 1271-1276 (1990) and Michael et al., J. Virol 65, 1291-1303 (1991), which are hereby incorporated by reference]. This system was selected for these experiments. Logarithmically growing ACH-2 cells, suspended at a concentration of 3×10^5 /ml, were incubated with the hypusine inhibitors mimosine and HK-1 at a final concentration of 200 μM. After 8 hours, viral replication was activated by addition of PMA to these cells and to untreated controls (100 ng/ml final PMA concentration). […] An aliquot of each fraction was analyzed by slot blotting, using the pXC-1 genomic ribosomal DNA probe from rat containing the 18S rRNA coding sequence [Rimarachin, Szabo et al., In Vitro 28A, 705-707 (1992), which is hereby incorporated by reference], to determine the location within the gradient of 18S rRNA, i.e., the distribution of polysomes vs. monosomes. […] Following electrophoresis, the radio-labeled PCR products were visualized by autoradiography according to routine techniques, and the band intensities quantified by densitometric analysis and expressed relative to total product per gradient. […]

SMILES: Cc1c(O)c(=O)ccn1C [HK-1, 1,2-dimethyl-3-hydroxypyrid-4-one]
- genomic DNA 3'-ends, CEM [1]: did not affect the position of this peak in uninfected CEM cells; also recorded: Only the virally-infected ACH-2, but not the parent CEM cells reacted to the inhibitors
- HIV-1 RNA splicing pattern [2]: apparent lack of 9-kb and 4-kb species
- viral p24 antigen in cells and supernatant [3]: suppressive effect

SMILES: N[C@@H](Cn1ccc(=O)c(O)c1)C(=O)O [L-Mimosine]
- average fluorescence peak after incubation and withdrawal, CEM ([1]; 200 μM 18 hours, then 2 hours withdrawal, FIG. 14): the position and shape of the average fluorescence peak in CEM cells did not change; also recorded: Only the virally infected ACH-2, but not the parent CEM cells reacted to the inhibitor
- genomic DNA 3'-ends, CEM [1]: did not affect the position of this peak in uninfected CEM cells; also recorded: Only the virally-infected ACH-2, but not the parent CEM cells reacted to the inhibitors
- HIV-1 RNA splicing pattern [2]: apparent lack of the 9-kb species
- viral p24 antigen in cells and supernatant [3]: suppressive effect
